The numbers were not newly measured in publication PMC10970644, “Molecular Pharmacology of Gelsemium Alkaloids on Inhibitory Receptors” (International Journal of Molecular Sciences, 2024), which cites them from elsewhere.

Molecules are shown by their SMILES.

The target of this data set is T1, α1 GlyR (Rattus norvegicus, UniProt P07727).
T1 construct: expressed in transfected cells; host or cells: HEK293 (ATCC CRL-1573)
T1 sequence (P07727 29-457): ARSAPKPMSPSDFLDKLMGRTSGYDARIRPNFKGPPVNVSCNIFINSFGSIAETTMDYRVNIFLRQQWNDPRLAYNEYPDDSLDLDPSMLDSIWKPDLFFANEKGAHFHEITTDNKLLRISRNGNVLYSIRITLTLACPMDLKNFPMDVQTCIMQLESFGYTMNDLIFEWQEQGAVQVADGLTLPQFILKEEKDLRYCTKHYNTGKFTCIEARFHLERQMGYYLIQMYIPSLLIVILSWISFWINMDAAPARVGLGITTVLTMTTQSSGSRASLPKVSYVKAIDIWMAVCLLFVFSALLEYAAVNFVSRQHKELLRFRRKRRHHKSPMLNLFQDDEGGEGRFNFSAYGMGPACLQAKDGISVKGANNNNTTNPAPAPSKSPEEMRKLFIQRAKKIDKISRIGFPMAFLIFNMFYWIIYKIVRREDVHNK
Particulars: homomeric α1GlyRs; cited from earlier work.

For the compound `C=C[C@]12CN(C)[C@@H]3[C@H]4CO[C@H](C[C@H]41)[C@]1(C(=O)Nc4ccccc41)[C@@H]32` [gelsemine], the “modulation of currents (in words)” value is on record as “bell-shape modulation”.
